As usually defined, the pKi is the Ki on a negative log10 scale, so that one unit is a factor of ten. In general, Ki refers to the dissociation constant of the complex between target and ligand, obtained from inhibition or displacement.

The text below walks through data of ChEMBL document CHEMBL1127537, “Synthesis and characterization of [125I]-N-(N-benzylpiperidin-4-yl)-4- iodobenzamide, a new sigma receptor radiopharmaceutical: high-affinity binding to MCF-7 breast tumor cells” (J Med Chem, 1994).

pKi: −log10 of the molar value.

The target in one assay is Glutamate NMDA receptor. Description: Binding affinity against phencyclidine receptor in rat brain membranes using radioligand [3H]TCP. The class given is cell membranes.
Assay [1] deals with Muscarinic acetylcholine receptor. Put plainly: Binding affinity against muscarinic receptor in rat brain membranes using radioligand [H}QNB. The class given is cell membranes.
Another assay addresses D(2) dopamine receptor (Rattus norvegicus, UniProt P61169). Description: Binding affinity against D-2 dopamine receptor in rat brain membranes using [3H](-)-sulpiride as radioligand. It is filed as cell membranes.
A further assay addresses Sigma 2 receptor. Description: Binding affinity against sigma-2 receptor in rat liver using radioligand [3H]DTG in the presence of dextrallorphan.

Chain of D(2) dopamine receptor (P61169 whole entry): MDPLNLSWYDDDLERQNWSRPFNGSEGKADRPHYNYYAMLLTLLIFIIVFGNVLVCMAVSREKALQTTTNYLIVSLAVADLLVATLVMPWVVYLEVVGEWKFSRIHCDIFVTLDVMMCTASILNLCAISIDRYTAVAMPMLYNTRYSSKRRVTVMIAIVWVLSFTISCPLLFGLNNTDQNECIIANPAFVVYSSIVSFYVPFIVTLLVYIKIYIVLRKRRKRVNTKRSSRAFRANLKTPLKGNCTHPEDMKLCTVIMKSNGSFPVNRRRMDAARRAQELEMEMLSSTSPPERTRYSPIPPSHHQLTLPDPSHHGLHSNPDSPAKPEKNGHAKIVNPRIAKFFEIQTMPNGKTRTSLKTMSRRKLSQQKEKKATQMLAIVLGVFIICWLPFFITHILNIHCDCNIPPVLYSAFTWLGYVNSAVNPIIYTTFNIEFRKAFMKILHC

`O=C(NC1CCN(Cc2ccccc2)CC1)c1ccccc1I`: the values for the pKi at Glutamate NMDA receptor, on D(2) dopamine receptor and on Sigma 2 receptor were under 4.00, 7.20 and 7.53, respectively. For the same molecule, the Ki in assay [1] is over 100 µM.
For `O=C(NC1CCN(Cc2ccccc2)CC1)c1ccc(I)cc1`, in that order: under 4.00, 6.42, 7.60 and over 100 µM.
For `O=C(NC1CCN(Cc2ccccc2)CC1)c1cccc(I)c1`, in that order: under 4.00, 7.61, 7.07 and over 100 µM.
